The record followed here is patent US20240299387A1, “HETEROCYCLIC EGFR INHIBITORS FOR USE IN THE TREATMENT OF CANCER” (Blueprint Medicines Corporation, priority 2021, published 2024).

For one assay, the target named is T1, EGFR (L858R T790M C797S) (Homo sapiens, UniProt P00533, C797S/L858R/T790M).
T1 construct: purchased SignalChem E10-122VG
Put plainly: Biochemical EGFR inhibition assay (Caliper mobility shift), EGFR LRTMCS mutant. Particulars: LRTMCS (PH) IC50 (nM) @ 1 mM ATP (Num). As for the experimental part:
Reactions proceeded until between 10% to 20% total peptides were phosphorylated at room temperature (25° C.) and were terminated with 35 mM 2,2′,2″,2′″-(ethane-1,2-diyldinitrilo)tetraacetic acid (EDTA). Product was detected using the Caliper mobility shift detection method where the phosphorylated peptide (product) and substrate were electrophoretically separated and measured. Percent activity was plotted against log concentration of compound and points to generate an apparent IC50.

Assay [1] has as its target T2, EGFR L858R T790M in NCI-H1975 cell line (Homo sapiens, UniProt P00533, L858R/T790M).
T2 construct: host or cells: NCI-H1975
Put plainly: NCI-H1975 pEGFR AlphaLISA assay. It counts as cell-based. Particulars: NCI-H1975 cells (EGFR L858R T790M), p-EGFR (Tyr1068), 4-5 hours incubation; read-out: Ext pEGFR H1975 GMean IC50 (nM) Protocol: @Pharmaron AlphaLISA (Num). Here is the method:
The NCI-H1975 cells were seeded at 12.5K/well in 22 μL into 384 well opti plate (PerkinElmer, 6007299) and adhering overnight at 37C/5% CO2. On the next day, the test compounds and DMSO control were added into H1975 cell plate followed by incubation at 37C/5% CO2 for 4-5 hours. […] Then 5 μL of a donor bead mix was added to each well followed by overnight incubation at room temperature in dark. On the next day, the plate was read at a compatible plate reader to obtain pEGFR signal. Percent of pEGFR inhibition was plotted against log concentration of compounds to generate IC50 values.

The structures appear in SMILES notation.

T1 sequence (P00533 25-1210 T790M/C797S/L858R): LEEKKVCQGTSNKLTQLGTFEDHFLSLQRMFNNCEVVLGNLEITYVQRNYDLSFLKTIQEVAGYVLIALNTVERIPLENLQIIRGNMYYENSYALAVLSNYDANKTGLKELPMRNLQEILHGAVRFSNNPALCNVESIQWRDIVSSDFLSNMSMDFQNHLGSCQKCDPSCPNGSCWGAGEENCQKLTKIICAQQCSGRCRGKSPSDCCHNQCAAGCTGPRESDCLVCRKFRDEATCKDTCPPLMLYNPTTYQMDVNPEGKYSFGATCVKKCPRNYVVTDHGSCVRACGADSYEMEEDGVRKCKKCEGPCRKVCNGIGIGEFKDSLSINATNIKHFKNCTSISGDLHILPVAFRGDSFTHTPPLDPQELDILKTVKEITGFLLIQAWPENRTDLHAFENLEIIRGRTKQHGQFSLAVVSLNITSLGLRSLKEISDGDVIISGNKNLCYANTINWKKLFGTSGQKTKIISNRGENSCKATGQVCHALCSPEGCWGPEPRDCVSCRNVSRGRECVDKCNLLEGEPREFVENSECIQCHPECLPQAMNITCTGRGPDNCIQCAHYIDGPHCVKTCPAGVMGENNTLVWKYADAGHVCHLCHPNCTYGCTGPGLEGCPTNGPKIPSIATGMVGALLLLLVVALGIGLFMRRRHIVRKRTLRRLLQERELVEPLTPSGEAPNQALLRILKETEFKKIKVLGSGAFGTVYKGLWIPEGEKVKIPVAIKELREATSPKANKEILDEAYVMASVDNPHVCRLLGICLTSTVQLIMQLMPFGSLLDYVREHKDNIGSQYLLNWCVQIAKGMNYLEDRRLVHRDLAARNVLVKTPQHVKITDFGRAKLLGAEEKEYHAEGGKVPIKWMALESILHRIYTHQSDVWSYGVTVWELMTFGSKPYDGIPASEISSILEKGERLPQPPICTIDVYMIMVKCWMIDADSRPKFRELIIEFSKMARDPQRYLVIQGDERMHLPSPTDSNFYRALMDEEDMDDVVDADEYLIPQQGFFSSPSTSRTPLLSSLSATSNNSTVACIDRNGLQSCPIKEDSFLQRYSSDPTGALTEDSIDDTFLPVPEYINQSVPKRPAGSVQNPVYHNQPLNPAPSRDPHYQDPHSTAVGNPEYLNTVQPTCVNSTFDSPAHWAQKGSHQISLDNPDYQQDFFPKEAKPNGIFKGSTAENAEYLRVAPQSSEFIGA
T2 sequence (P00533 25-1210 T790M/L858R): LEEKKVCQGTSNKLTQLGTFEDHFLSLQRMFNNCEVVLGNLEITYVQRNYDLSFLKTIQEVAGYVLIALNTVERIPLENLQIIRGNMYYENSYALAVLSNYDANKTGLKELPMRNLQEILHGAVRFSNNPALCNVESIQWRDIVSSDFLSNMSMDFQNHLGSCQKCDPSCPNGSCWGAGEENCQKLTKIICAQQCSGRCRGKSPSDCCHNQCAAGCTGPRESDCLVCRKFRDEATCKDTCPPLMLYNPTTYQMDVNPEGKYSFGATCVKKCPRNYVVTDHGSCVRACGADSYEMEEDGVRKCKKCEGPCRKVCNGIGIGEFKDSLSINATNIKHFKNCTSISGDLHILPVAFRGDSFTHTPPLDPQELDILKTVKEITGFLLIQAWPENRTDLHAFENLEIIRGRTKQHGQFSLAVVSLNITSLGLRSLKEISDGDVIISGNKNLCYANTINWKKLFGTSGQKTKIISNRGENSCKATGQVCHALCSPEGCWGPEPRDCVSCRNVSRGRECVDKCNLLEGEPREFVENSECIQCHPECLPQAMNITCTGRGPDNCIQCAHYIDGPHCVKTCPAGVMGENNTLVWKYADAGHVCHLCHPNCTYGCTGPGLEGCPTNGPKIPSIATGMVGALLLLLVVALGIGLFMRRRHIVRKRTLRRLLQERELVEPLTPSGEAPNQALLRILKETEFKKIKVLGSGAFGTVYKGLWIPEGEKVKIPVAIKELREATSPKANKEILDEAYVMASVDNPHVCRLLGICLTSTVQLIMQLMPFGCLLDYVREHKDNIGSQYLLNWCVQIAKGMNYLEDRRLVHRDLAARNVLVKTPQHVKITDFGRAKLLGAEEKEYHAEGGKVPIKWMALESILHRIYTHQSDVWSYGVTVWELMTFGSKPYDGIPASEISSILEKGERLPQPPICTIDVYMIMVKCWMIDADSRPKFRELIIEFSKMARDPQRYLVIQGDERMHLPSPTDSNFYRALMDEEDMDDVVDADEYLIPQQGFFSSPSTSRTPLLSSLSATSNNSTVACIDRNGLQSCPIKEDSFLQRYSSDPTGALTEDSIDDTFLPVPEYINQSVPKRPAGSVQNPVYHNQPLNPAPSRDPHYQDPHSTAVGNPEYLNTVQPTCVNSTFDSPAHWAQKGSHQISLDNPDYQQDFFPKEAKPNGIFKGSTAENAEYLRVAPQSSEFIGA

Take `CC(=O)N1CC(COc2ccc(C(C)C)c3cc(Nc4ccnc(N5CCC(C)(O)CC5)n4)ncc23)C1` [Example 14, 1-(3-(((3-((2-(4-hydroxy-4-methylpiperidin-1-yl)pyrimidin-4-yl)amino)-5-isopropylisoquinolin-8-yl)oxy)methyl)azetidin-1-yl)ethanone]: the concentration for half-maximal inhibition (IC50) (commonly the concentration needed to halve the response being measured) was 20 to 30 nM on EGFR (L858R T790M C797S) and greater than 50 nM in assay [1].
Take `CC(C)c1ccc(OCCn2cncn2)c2cnc(Nc3ccnc(N4CCC(C)(O)CC4)n3)cc12` [Example 15, 1-(4-((8-(2-(1H-1,2,4-triazol-1-yl)ethoxy)-5-isopropylisoquinolin-3-yl)amino)pyrimidin-2-yl)-4-methylpiperidin-4-ol]: the 50% inhibitory concentration (IC50) on EGFR (L858R T790M C797S) was less than 15 nM; in assay [1] it was 30 to 50 nM.
On to `CC(C)c1ccc(OC[C@H]2CN(C)C(=O)O2)c2cnc(Nc3ccnc(N4CCC(C)(O)CC4)n3)cc12` [Example 16, (R)-5-(((3-((2-(4-hydroxy-4-methylpiperidin-1-yl)pyrimidin-4-yl)amino)-5-isopropylisoquinolin-8-yl)oxy)methyl)-3-methyloxazolidin-2-one], for which the figures for the IC50 (on EGFR (L858R T790M C797S); in assay [1]) were 20 to 30 nM and greater than 50 nM, respectively.
The like results for `CC(C)c1ccc(OCCn2ccnc2)c2cnc(Nc3ccnc(N4CCC(C)(O)CC4)n3)cc12` [Example 17, 1-(4-((8-(2-(1H-imidazol-1-yl)ethoxy)-5-isopropylisoquinolin-3-yl)amino)pyrimidin-2-yl)-4-methylpiperidin-4-ol] were, in that order, less than 15 nM and greater than 50 nM.
Take `CC(C)c1ccc(OCC2CCc3cncn32)c2cnc(Nc3ccnc(N4CCC(C)(O)CC4)n3)cc12` (stereo not drawn) [Example 18, 1-(4-((8-((6,7-dihydro-5Hpyrrolo[1,2-c]imidazol-5-yl)methoxy)-5-isopropylisoquinolin-3-yl)amino)pyrimidin-2-yl)-4-methylpiperidin-4-ol]: the IC50 at EGFR (L858R T790M C797S) was less than 15 nM; in assay [1] it was 20 to 30 nM.
In the case of `CC(C)c1ccc(OC[C@H]2CCC(=O)N2C)c2cnc(Nc3ccnc(N4CC[C@](C)(O)[C@H](F)C4)n3)cc12` [Example 25, (R)-5-(((3-((2-((3R,4S)-3-fluoro-4-hydroxy-4-methylpiperidin-1-yl)pyrimidin-4-yl)amino)-5-isopropylisoquinolin-8-yl)oxy)methyl)-1-methylpyrrolidin-2-one], the half-inhibitory concentration (IC50) at EGFR (L858R T790M C797S) was 15 to 20 nM; in assay [1], greater than 50 nM.
In the case of `CC(=O)N1CC(COc2ccc(C(C)C)c3cc(Nc4ccnc(N5CC[C@](C)(O)[C@H](F)C5)n4)ncc23)C1` [Example 26, 1-(3-(((3-((2-((3R,4S)-3-fluoro-4-hydroxy-4-methylpiperidin-1-yl)pyrimidin-4-yl)amino)-5-isopropylisoquinolin-8-yl)oxy)methyl)azetidin-1-yl)ethan-1-one], the IC50 on EGFR (L858R T790M C797S) was 15 to 20 nM; in assay [1], greater than 50 nM.
In the same order, the values of `CC(C)c1ccc(OCCn2cnnc2)c2cnc(Nc3ccnc(N4CC[C@](C)(O)[C@H](F)C4)n3)cc12` [Example 27, (3R,4S)-1-(4-((8-(2-(4H-1,2,4-triazol-4-yl)ethoxy)-5-isopropylisoquinolin-3-yl)amino)pyrimidin-2-yl)-3-fluoro-4-methylpiperidin-4-ol] are less than 15 nM and greater than 50 nM.
For `CC(C)c1ccc(OCCn2cnnc2)c2cnc(Nc3ccnc(N4CC[C@@](C)(O)[C@@H](F)C4)n3)cc12` [Example 28, (3S,4R)-1-(4-((8-(2-(4H-1,2,4-triazol-4-yl)ethoxy)-5-isopropylisoquinolin-3-yl)amino)pyrimidin-2-yl)-3-fluoro-4-methylpiperidin-4-ol], the IC50 on EGFR (L858R T790M C797S) was less than 15 nM; in assay [1] it was 20 to 30 nM.
Turning to `CC(C)c1ccc(OCCn2ccnc2)c2cnc(Nc3ccnc(N4CC[C@](C)(O)[C@H](F)C4)n3)cc12` [Example 29, (3R,4S)-1-(4-((8-(2-(1H-imidazol-1-yl)ethoxy)-5-isopropylisoquinolin-3-yl)amino)pyrimidin-2-yl)-3-fluoro-4-methylpiperidin-4-ol], the half-maximal inhibitory concentration (IC50) was less than 15 nM on EGFR (L858R T790M C797S) and 20 to 30 nM in assay [1].
For `Cc1nncn1CCOc1ccc(C(C)C)c2cc(Nc3ccnc(N4CC[C@](C)(O)[C@H](F)C4)n3)ncc12` [Example 30, (3R,4S)-3-fluoro-1-(4-((5-isopropyl-8-(2-(3-methyl-4H-1,2,4-triazol-4-yl)ethoxy)isoquinolin-3-yl)amino)pyrimidin-2-yl)-4-methylpiperidin-4-ol], the values for the 50% inhibitory concentration (IC50) (at EGFR (L858R T790M C797S); in assay [1]) were less than 15 nM and greater than 50 nM, respectively.
In the same order, the values of `CC(C)c1ccc(OCCN2CCOCC2)c2cnc(Nc3ccnc(N4CC[C@](C)(O)[C@H](F)C4)n3)cc12` [Example 31, (3R,4S)-3-fluoro-1-(4-((5-isopropyl-8-(2-morpholinoethoxy)isoquinolin-3-yl)amino)pyrimidin-2-yl)-4-methylpiperidin-4-ol] are less than 15 nM and greater than 50 nM.
Regarding `CC(C)c1ccc(OCCn2ccnn2)c2cnc(Nc3ccnc(N4CC[C@](C)(O)[C@H](F)C4)n3)cc12` [Example 32, (3R,4S)-1-(4-((8-(2-(1H-1,2,3-triazol-1-yl)ethoxy)-5-isopropylisoquinolin-3-yl)amino)pyrimidin-2-yl)-3-fluoro-4-methylpiperidin-4-ol], the half-maximal inhibitory concentration (IC50) was less than 15 nM on EGFR (L858R T790M C797S) and greater than 50 nM in assay [1].
In the case of `CC(C)c1ccc(OC[C@@H]2CCC(=O)N2C)c2cnc(Nc3ccnc(N4CC[C@](C)(O)[C@H](F)C4)n3)cc12` [Example 33, (S)-5-(((3-((2-((3R,4S)-3-fluoro-4-hydroxy-4-methylpiperidin-1-yl)pyrimidin-4-yl)amino)-5-isopropylisoquinolin-8-yl)oxy)methyl)-1-methylpyrrolidin-2-one], the figures for the IC50 (at EGFR (L858R T790M C797S); in assay [1]) were 15 to 20 nM and 30 to 50 nM, respectively.
Turning to `CC(C)c1ccc(OCCc2ccnn2C)c2cnc(Nc3ccnc(N4CC[C@](C)(O)[C@H](F)C4)n3)cc12` [Example 34, (3R,4S)-3-fluoro-1-(4-((5-isopropyl-8-(2-(1-methyl-1H-pyrazol-5-yl)ethoxy)isoquinolin-3-yl)amino)pyrimidin-2-yl)-4-methylpiperidin-4-ol], the IC50 was 15 to 20 nM on EGFR (L858R T790M C797S) and greater than 50 nM in assay [1].
For the compound `CC(C)c1ccc(OCCc2cnnn2C)c2cnc(Nc3ccnc(N4CC[C@](C)(O)[C@H](F)C4)n3)cc12` [Example 35, (3R,4S)-3-fluoro-1-(4-((5-isopropyl-8-(2-(1-methyl-1H-1,2,3-triazol-5-yl)ethoxy)isoquinolin-3-yl)amino)pyrimidin-2-yl)-4-methylpiperidin-4-ol], the values for the IC50 (on EGFR (L858R T790M C797S); in assay [1]) were 15 to 20 nM and 30 to 50 nM, respectively.
Turning to `CC(C)c1ccc(OC[C@H](C)n2cnnc2)c2cnc(Nc3ccnc(N4CC[C@](C)(O)[C@H](F)C4)n3)cc12` [Example 36, (3R,4S)-1-(4-((8-((S)-2-(4H-1,2,4-triazol-4-yl)propoxy)-5-isopropylisoquinolin-3-yl)amino)pyrimidin-2-yl)-3-fluoro-4-methylpiperidin-4-ol], the IC50 at EGFR (L858R T790M C797S) is 15 to 20 nM; in assay [1], greater than 50 nM.
Turning to `CC(C)c1ccc(OC[C@@H](C)n2cnnc2)c2cnc(Nc3ccnc(N4CC[C@](C)(O)[C@H](F)C4)n3)cc12` [Example 37, (3R,4S)-1-(4-((8-((R)-2-(4H-1,2,4-triazol-4-yl)propoxy)-5-isopropylisoquinolin-3-yl)amino)pyrimidin-2-yl)-3-fluoro-4-methylpiperidin-4-ol], the IC50 at EGFR (L858R T790M C797S) lay within 15 to 20 nM; in assay [1], 30 to 50 nM.
